# Results published in patent US7173004B2, “Macrocyclic isoquinoline peptide inhibitors of hepatitis C virus” (Bristol-Myers Squibb Company, priority 2003, dated 2007).
# Experiments:
# Type in all cases: biochemical
# [1] = molecular target: T1, HCV NS3/4A protease complex, H77C strain (1a genotype) (Hepatitis C virus genotype 1a, UniProt P27958, C1454S); assay: Recombinant HCV NS3/4A protease complex FRET peptide assay, H77C strain
# T1 construct: DNA encoding the recombinant HCV NS3/4A protease complex (amino acids 1027 to 1711) for these strains; His tag (inferred from Ni-NTA purification and pET21b vector); made in house; host or cells: Escherichia coli BL21 (DE3)
# Excerpt: (§1) Recombinant HCV NS3/4A Protease Complex FRET Peptide Assay
# (§2) The purpose of this in vitro assay was to measure the inhibition of HCV NS3 protease complexes, derived from the BMS strain, H77C strain or J416S strain, as described below, by compounds of the present invention. This assay provides an indication of how effective compounds of the present invention would be in inhibiting HCV proteolytic activity.
# (§3) Serum from an HCV-infected patient was obtained from Dr. T. Wright, San Francisco Hospital. An engineered full-length cDNA (compliment deoxyribonucleic acid) template of the HCV genome (BMS strain) was constructed from DNA fragments obtained by reverse transcription-PCR (RT-PCR) of serum RNA (ribonucleic acid) and using primers selected on the basis of homology between other genotype 1a strains. From the determination of the entire genome sequence, a genotype 1a was assigned to the HCV isolate according to the classification of Simmonds et al. (See P Simmonds, K A Rose, S Graham, S W Chan, F McOmish, B C Dow, E A Follett, P L Yap and H Marsden, J. Clin. Microbiol., 31(6), 1493–1503 (1993)). […]
# [2] = molecular target: T2, HCV NS3/4A protease complex, J4L6S strain (1b genotype) (Hepatitis C virus genotype 1b, UniProt O92972, C1454S/C1711G); assay: Recombinant HCV NS3/4A protease complex FRET peptide assay, J4L6S strain
# T2 construct: DNA encoding the recombinant HCV NS3/4A protease complex (amino acids 1027 to 1711) for these strains; His tag (inferred from Ni-NTA purification and pET21b vector); made in house; host or cells: Escherichia coli BL21 (DE3)
# Excerpt: as §1, §2, §3
# human liver cathepsin B = molecular target: T3, human liver cathepsin B (Homo sapiens, UniProt P07858); assay: Specificity assay, cathepsin B; conditions: read-out: Cathepsin B activity in the specificity assays (IC50)
# T3 construct: purchased Sigma; host or cells: human liver (by the enzyme's name)
# Method: The specificities of compounds of the present invention were determined against a variety of serine proteases: human neutrophil elastase (HNE), porcine pancreatic elastase (PPE) and human pancreatic chymotrypsin and one cysteine protease: human liver cathepsin B. In all cases a 96-well plate format protocol using calorimetric p-nitroaniline (pNA) substrate specific for each enzyme was used as described previously (PCT Patent Application No. WO 00/09543) with some modifications to the serine protease assays. All enzymes were purchased from Sigma while the substrates were from Bachem.
# Each assay included a 2 hr enzyme-inhibitor pre-incubation at room temperature followed by addition of substrate and hydrolysis to ˜30% conversion as measured on a Spectramax Pro microplate reader. Compound concentrations varied from 100 to 0.4 micromolar (“μM”) depending on their potency. […]
# The percentage of inhibition was calculated using the formula: [1−((UVinh−UVblank)/(UVctl−UVblank))]×100 […]
# T2 sequence (O92972 1027-1711 C1454S/C1711G, one chain of several): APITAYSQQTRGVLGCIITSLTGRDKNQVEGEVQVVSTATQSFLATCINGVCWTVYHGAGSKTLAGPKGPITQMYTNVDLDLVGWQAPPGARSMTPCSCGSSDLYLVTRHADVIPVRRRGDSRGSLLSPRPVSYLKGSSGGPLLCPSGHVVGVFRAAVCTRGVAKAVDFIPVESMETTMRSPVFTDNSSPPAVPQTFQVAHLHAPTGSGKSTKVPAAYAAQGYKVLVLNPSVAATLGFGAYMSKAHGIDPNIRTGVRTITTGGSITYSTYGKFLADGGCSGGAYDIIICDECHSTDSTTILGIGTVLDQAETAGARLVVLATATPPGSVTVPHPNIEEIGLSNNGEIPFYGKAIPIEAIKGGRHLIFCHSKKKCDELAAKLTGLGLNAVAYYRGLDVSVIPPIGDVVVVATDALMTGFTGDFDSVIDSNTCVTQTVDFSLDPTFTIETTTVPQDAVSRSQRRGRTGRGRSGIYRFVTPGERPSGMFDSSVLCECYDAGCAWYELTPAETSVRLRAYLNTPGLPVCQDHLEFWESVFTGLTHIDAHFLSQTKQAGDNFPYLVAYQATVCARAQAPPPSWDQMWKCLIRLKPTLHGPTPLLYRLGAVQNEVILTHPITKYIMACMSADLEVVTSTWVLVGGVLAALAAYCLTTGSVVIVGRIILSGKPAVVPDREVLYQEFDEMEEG
# T1 sequence (P27958 1027-1657 C1454S): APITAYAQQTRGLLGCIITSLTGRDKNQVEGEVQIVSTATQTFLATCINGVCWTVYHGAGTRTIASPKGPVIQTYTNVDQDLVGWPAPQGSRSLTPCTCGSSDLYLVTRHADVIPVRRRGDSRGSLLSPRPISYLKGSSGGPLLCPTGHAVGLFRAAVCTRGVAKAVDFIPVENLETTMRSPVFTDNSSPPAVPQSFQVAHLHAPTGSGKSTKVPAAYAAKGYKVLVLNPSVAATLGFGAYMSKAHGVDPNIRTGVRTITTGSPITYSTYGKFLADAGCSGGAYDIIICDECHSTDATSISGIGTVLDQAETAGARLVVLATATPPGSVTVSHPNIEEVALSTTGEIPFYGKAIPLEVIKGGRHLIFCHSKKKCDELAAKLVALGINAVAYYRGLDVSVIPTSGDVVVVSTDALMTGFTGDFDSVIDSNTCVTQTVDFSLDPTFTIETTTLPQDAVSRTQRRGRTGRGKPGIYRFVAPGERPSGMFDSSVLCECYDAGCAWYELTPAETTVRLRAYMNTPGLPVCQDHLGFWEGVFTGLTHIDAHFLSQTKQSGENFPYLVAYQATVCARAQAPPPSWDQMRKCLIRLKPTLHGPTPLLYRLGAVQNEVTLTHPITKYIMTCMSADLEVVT
# T1 sequence (P27958 1658-1714 partner, looked up, stated change not applied): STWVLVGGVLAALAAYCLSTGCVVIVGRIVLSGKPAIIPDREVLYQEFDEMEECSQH
smiles,measurement,setting,value
"CC(C)(C)OC(=O)N[C@H]1CCCCC/C=C\[C@@H]2C[C@@]2(C(=O)NS(C)(=O)=O)NC(=O)[C@@H]2C[C@@H](Oc3nccc4ccccc34)CN2C1=O [Compound 2, [18-(Isoquinolin-1-yloxy)-4-methanesulfonylaminocarbonyl-2,15-dioxo-3,16-diaza-tricyclo[14.3.0.0^4,6]nonadec-7-en-14-yl]-carbamic acid tert-butyl ester]",IC50,[1],4.2 nM
same,IC50,[2],1.9 nM
same,IC50,human liver cathepsin B,> 100000 nM
